Measurements reported in ChEMBL document CHEMBL1799989 (Bioorg Med Chem Lett, 2011).
“And” between values parts separate entries of the source, which are not always exact repeats. Equal values may be shown once.

Tests used:
[1] = system: PBMC; test: Antiinflammatory activity in human PBMC assessed as inhibition of LPS-induced TNFalpha release pretreated for 1 hr before LPS treatment measured after 18 hrs; format: functional, cell-based
[2] = system: Rattus norvegicus; test: Antiinflammatory activity in fasted Lewis rat assessed as inhibition of LPS-induced TNFalpha production at 5 mg/kg, po administered 4 hrs prior LPS challenge measured after 90 mins by ELISA; format: functional; conditions: for inhibition in vivo at 5 mg/kg: Rattus norvegicus, Lewis, po
[3] = system: Rattus norvegicus; test: Antiarthritic activity in Lewis rat assessed as inhibition of streptococcal cell wall-induced paw swelling at 10 mg/kg/day, po administered on day 10 of streptococcal cell wall challenge continued until day 21 by plethysmometer; format: functional
[4] = (§1) Metabolic stability in human liver microsomes assessed as compound remaining at 2 uM after 45 mins by LC/MS analysis in presence of NADPH; format: ADME, Microsome; conditions: liver microsomes, read-out: Stability
[5] = (§2) Metabolic stability in rat liver microsomes assessed as compound remaining at 2 uM after 45 mins by LC/MS analysis in presence of NADPH; format: ADME, Microsome; conditions: liver microsomes, read-out: Stability
[6] = target: Mitogen-activated protein kinase 14 (Homo sapiens, UniProt Q16539); test: Inhibition of p38alpha assessed as phosphorylation FITC-labeled Hsp27 after 60 mins by fluorescence based cascade assay
Mitogen-activated protein kinase 14, sequence (Q16539 whole entry): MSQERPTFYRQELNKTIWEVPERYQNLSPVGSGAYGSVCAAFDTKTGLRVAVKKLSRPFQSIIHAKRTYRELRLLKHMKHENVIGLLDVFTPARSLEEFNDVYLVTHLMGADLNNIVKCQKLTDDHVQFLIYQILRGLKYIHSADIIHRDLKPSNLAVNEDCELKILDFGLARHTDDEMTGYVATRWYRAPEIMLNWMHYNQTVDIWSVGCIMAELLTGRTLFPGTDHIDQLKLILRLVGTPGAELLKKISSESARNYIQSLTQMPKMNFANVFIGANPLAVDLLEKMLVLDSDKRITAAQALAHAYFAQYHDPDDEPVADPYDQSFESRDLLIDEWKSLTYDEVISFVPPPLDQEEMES

[7] = system: Rattus norvegicus; test: Antiarthritic activity in Lewis rat assessed as inhibition of streptococcal cell wall-induced paw swelling at 60 mg/kg/day, po administered on day 10 of streptococcal cell wall challenge continued until day 21 by plethysmometer; format: functional
[8] = system: Rattus norvegicus; test: Antiarthritic activity in Lewis rat assessed as inhibition of streptococcal cell wall-induced paw swelling at 30 mg/kg/day, po administered on day 10 of streptococcal cell wall challenge continued until day 21 by plethysmometer; format: functional
[9] = Solubility of the compound in phosphate buffer at pH 7; format: physicochemical
[10] = Apparent permeability across apical to basolateral side in human Caco2 cells at 100 uM; format: ADME, cell-based; conditions: Caco-2
[11] = Oral bioavailability in Sprague-Dawley rat at 2 mg/kg administered as solution; format: ADME, organism-based; conditions: in vivo
[12] = Oral bioavailability in Beagle dog administered as solution; format: ADME, organism-based, Canis lupus familiaris; conditions: in vivo
[13] = Oral bioavailability in cynomolgus monkey administered as solution; format: ADME, organism-based, Macaca fascicularis; conditions: in vivo
[14] = Half life in Sprague-Dawley rat administered as crystalline form; format: ADME, organism-based; conditions: in vivo
[15] = Half life in Beagle dog administered as crystalline form; format: ADME, organism-based, Canis lupus familiaris; conditions: in vivo
[16] = Oral bioavailability in Sprague-Dawley rat at 15 mg/kg administered as solution; format: ADME, organism-based; conditions: in vivo
[17] = Half life in cynomolgus monkey administered as crystalline form; format: ADME, organism-based, Macaca fascicularis; conditions: in vivo
[18] = Oral bioavailability in Sprague-Dawley rat administered as crystalline form; format: ADME, organism-based; conditions: in vivo
[19] = system: Rattus norvegicus; test: Antiarthritic activity in Lewis rat assessed as inhibition of streptococcal cell wall-induced paw swelling at 2 mg/kg/day, po administered on day 10 of streptococcal cell wall challenge continued until day 21 by plethysmometer; format: functional
[20] = Apparent permeability across apical to basolateral side in human Caco2 cells at 1 uM; format: ADME, cell-based; conditions: Caco-2
[21] = system: Liver microsomes; test: as §1; format: ADME, Microsome; conditions: microsomes, 0.75 h, 2 µM
[22] = system: Liver microsomes; test: as §2; format: ADME, Microsome; conditions: microsomes, 0.75 h, 2 µM
[23] = Oral bioavailability in cynomolgus monkey administered as crystalline form; format: ADME, organism-based, Macaca fascicularis; conditions: in vivo

| Compound | remaining at 0.75 h, 2 µM [4] [%] | remaining at 0.75 h, 2 µM [5] [%] | IC50 [6] [nM] | IC50 ([1]; Homo sapiens, PBMC) [nM] | inhibition in vivo at 5 mg/kg [2] [%] | also measured |
| --- | --- | --- | --- | --- | --- | --- |
| CNC(=O)c1ccc(-n2c(C)cc(OCc3ccc(F)cc3F)c(Br)c2=O)c(C)c1 | 93 | 86 | 34 | 156 | 54 |  |
| CNC(=O)c1cccc(-n2c(C)cc(OCc3ccc(F)cc3F)c(Br)c2=O)c1C | 89 | 91 | 48.5 | 193 | 61 |  |
| CNC(=O)c1ccc(C(=O)O)c(-n2c(C)cc(OCc3ccc(F)cc3F)c(Br)c2=O)c1 |  |  | > 10000 | > 25000 |  |  |
| CNC(=O)c1ccc(CO)c(-n2c(C)cc(OCc3ccc(F)cc3F)c(Br)c2=O)c1 |  |  | 325 |  |  |  |
| CNC(=O)c1ccc(C)c(-n2c(C)cc(OCc3ccc(F)cc3F)c(Br)c2=O)c1 [PH-797804] | 91 | 95 |  |  |  | solubility [9]: < 5 µg/mL; Papp A→B at 100 µM [10]: 25 ×10⁻⁶ cm/s; bioavailability [11]: > 100%; bioavailability [12]: 59.6%; bioavailability [13]: 36.2%; half-life [14]: 2.6 h; half-life [15]: 11.4 h; bioavailability [16]: 80.4%; IC50 ([1]; pbmc): 15 nM and 3.4 nM; half-life [17]: 3.93 h; bioavailability [18]: 35.7%; inhibition (INH) ([2]; 5 mg/kg): 95% and 38%; inhibition in vivo at 2 mg/kg/day [19]: 80%; Papp A→B at 1 µM [20]: 10 ×10⁻⁶ cm/s; Stability [21]: 98% and 92%; Stability [22]: 100%; bioavailability [23]: 23.2% |

Further molecules by falling IC50 [6], results first:

| remaining at 0.75 h, 2 µM [4] [%] | remaining at 0.75 h, 2 µM [5] [%] | IC50 [6] [nM] | Compound | IC50 ([1]; Homo sapiens, PBMC) [nM] | inhibition in vivo at 5 mg/kg [2] [%] | also measured |
| --- | --- | --- | --- | --- | --- | --- |
|  |  | 21 | CNC(=O)c1ccc(OC)c(-n2c(C)cc(OCc3ccc(F)cc3F)c(Br)c2=O)c1 | 107 | 20 |  |
| 75 | 71 | 9.5 | Cc1ccc(C(=O)N(C)C)cc1-n1c(C)cc(OCc2ccc(F)cc2F)c(Br)c1=O | 28.5 | 96 | inhibition in vivo at 60 mg/kg/day [7]: 74% |
|  |  | 8.5 | CNC(=O)c1ccc(F)c(-n2c(C)cc(OCc3ccc(F)cc3F)c(Br)c2=O)c1 | 46 | 83 |  |
|  |  | 4 | CNC(=O)c1ccc(C)c(-n2c(CO)cc(OCc3ccc(F)cc3F)c(Br)c2=O)c1 | 16 | 1 |  |
|  |  | 3 | CNC(=O)c1ccc(Cl)c(-n2c(C)cc(OCc3ccc(F)cc3F)c(Br)c2=O)c1 | 18 | 89 | inhibition in vivo at 30 mg/kg/day [8]: 90% |
| 84 | 100 | 2 | Cc1ccc(C(N)=O)cc1-n1c(C)cc(OCc2ccc(F)cc2F)c(Br)c1=O | 2.5 | 98 | inhibition in vivo at 10 mg/kg/day [3]: 87% |
